Source: patent US10183943B2, “Heterocyclic compounds and their use in preventing or treating bacterial infections” (MUTABILIS, priority 2015, dated 2019)

Tests used:
OXA-1 = biological target: T1, OXA-1 (Escherichia coli, UniProt P13661); experiment: β-lactamase inhibitory activity, determination of IC50 (nitrocefin hydrolysis); type: biochemical; settings: class (D); nitrocefin 200 μM, 30 min pre-incubation; read-out: IC50 β-lactamase OXA-1
T1 construct: made in house; host or cells: E. coli

AmpC P. aeruginosa = AmpC P. aeruginosa (Pseudomonas aeruginosa, UniProt P24735); experiment: as above
AmpC P. aeruginosa, sequence (P24735 27-397): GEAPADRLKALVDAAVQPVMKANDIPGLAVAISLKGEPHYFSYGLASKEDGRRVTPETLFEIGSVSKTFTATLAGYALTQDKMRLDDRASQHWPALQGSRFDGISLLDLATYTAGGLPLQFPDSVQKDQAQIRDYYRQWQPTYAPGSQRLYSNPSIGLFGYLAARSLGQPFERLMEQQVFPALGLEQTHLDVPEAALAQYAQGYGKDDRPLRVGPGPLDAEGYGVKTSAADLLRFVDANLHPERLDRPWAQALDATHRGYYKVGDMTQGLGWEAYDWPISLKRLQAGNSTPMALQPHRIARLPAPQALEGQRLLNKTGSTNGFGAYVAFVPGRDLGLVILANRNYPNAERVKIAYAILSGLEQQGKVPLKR

KPC-2 = biological target: T2, KPC-2 (Klebsiella pneumoniae, UniProt Q9F663); experiment: as above; type: biochemical; settings: class (A); nitrocefin 200 μM, 30 min pre-incubation; read-out: IC50 β-lactamase KPC-2
T2 construct: made in house; host or cells: E. coli
T2 sequence (Q9F663 25-293 limits assumed): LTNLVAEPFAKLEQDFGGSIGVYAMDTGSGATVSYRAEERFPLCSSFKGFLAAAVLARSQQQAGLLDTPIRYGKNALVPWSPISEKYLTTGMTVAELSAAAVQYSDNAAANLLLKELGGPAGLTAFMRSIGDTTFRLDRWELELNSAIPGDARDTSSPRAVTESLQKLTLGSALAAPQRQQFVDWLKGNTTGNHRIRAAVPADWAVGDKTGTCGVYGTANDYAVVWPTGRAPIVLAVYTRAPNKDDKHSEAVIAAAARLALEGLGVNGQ

CTX-M-15 = biological target: T3, CTX-M-15 (Escherichia coli, UniProt Q9EXV5); experiment: as above; type: biochemical; settings: class (A); nitrocefin 200 μM, 30 min pre-incubation; read-out: IC50 β-lactamase CTX-M-15
T3 construct: made in house; host or cells: E. coli
T3 sequence (Q9EXV5 entry or part of it): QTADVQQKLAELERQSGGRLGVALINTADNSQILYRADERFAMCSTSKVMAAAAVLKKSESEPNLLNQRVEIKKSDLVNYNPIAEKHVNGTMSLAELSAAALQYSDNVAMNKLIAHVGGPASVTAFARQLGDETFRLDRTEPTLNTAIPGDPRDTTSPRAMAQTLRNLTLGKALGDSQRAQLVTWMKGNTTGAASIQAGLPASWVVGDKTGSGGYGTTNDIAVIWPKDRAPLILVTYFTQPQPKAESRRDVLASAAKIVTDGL

OXA-48 = biological target: T4, OXA-48 (Klebsiella pneumoniae, UniProt Q6XEC0); experiment: as above; type: biochemical; settings: class (D); nitrocefin 200 μM, 30 min pre-incubation; read-out: IC50 β-lactamase OXA-48
T4 construct: made in house; host or cells: E. coli
T4 sequence (Q6XEC0 23-265 limits assumed): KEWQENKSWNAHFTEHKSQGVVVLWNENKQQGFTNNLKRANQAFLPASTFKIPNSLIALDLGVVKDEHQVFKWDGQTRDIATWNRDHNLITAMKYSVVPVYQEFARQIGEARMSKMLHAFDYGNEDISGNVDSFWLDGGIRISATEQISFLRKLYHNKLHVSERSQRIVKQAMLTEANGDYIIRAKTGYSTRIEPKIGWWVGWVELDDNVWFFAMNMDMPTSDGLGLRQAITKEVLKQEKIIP

SHV-1 = biological target: T5, SHV-1 (Klebsiella pneumoniae, UniProt P0AD64); experiment: as above; type: biochemical
T5 construct: made in house; host or cells: E. coli
T5 sequence (P0AD64 22-286): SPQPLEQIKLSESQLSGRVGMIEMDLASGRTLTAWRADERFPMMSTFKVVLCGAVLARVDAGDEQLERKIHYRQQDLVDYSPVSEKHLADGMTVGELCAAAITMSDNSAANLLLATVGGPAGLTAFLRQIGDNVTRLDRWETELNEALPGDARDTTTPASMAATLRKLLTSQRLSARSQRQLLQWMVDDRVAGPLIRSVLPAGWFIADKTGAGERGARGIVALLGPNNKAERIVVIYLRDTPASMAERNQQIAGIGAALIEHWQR

OXA-11 = biological target: T6, OXA-11 (Pseudomonas aeruginosa, UniProt Q06778); experiment: as above; type: biochemical
T6 construct: made in house; host or cells: E. coli
T6 sequence (Q06778 21-266): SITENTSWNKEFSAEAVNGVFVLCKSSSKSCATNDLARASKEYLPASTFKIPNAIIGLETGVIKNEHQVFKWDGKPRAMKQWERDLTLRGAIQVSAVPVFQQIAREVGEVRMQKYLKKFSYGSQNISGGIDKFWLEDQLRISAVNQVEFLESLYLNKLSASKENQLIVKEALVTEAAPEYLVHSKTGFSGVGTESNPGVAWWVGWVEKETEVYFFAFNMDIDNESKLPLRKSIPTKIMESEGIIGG

OXA-15 = biological target: T7, OXA-15 (Pseudomonas aeruginosa, UniProt Q51574); experiment: biochemical
T7 construct: made in house; host or cells: E. coli
T7 sequence (Q51574 22-275): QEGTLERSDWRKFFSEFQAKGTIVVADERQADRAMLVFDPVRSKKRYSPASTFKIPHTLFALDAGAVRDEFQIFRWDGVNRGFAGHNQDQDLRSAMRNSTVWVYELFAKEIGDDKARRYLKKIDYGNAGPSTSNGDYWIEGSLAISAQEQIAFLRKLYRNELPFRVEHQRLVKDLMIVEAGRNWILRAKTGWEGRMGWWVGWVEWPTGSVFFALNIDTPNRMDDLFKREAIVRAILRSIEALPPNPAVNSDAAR

TEM-1 = biological target: T8, TEM-1 (Escherichia coli, UniProt P62593); experiment: β-lactamase inhibitory activity, determination of IC50 (nitrocefin hydrolysis); type: biochemical
T8 construct: made in house; host or cells: E. coli
T8 sequence (P62593 24-286 limits assumed): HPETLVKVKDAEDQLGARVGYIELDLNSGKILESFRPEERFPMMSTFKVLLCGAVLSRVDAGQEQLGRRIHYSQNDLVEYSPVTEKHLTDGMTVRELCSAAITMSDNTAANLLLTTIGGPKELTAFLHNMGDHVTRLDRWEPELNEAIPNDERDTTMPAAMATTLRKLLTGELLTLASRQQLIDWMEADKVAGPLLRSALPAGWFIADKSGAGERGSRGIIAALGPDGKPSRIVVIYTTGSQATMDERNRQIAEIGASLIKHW

AmpC (P99) = AmpC (P99) (Enterobacter cloacae, UniProt P05364); experiment: as above
AmpC (P99), sequence (P05364 21-381): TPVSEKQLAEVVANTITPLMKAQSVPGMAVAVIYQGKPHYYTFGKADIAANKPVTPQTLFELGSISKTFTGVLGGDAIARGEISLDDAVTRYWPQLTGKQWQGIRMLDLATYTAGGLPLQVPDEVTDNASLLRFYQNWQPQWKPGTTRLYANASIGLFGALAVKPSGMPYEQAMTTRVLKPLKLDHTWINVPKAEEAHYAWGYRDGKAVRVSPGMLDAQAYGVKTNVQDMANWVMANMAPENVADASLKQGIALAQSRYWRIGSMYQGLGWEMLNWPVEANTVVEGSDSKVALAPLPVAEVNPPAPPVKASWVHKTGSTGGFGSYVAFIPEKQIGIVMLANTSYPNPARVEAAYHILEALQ

E. cloacae P99 (AmpC) = experiment: MIC of compounds alone, broth microdilution; type: cell-based; settings: Enterobacter cloacae; strain P99 (E. cloacae); read-out: MIC compounds of the invention alone
Procedure, shortened: (§1)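 Read-out: lowest compound concentration with no growth by visual inspection. CLSI M7-A7 broth microdilution, cation-adjusted Mueller-Hinton broth, inoculum 5×10^5 cfu/mL from log-phase culture, 16-20 h, 35° C, ambient air; compound tested without β-lactam.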

[1] = system: E. coli UFR74 (SHV-1, DHA-1); experiment: MIC of compounds alone, broth microdilution; type: cell-based; settings: Escherichia coli; strain UFR74 (E. coli); read-out: MIC compounds of the invention alone
Procedure, shortened: as §1

[2] = system: E. cloacae UFR85 (TEM-1, CTX-M-15, AmpC); experiment: MIC of compounds alone, broth microdilution; type: cell-based; settings: Enterobacter cloacae, read-out: MIC compounds of the invention alone
Procedure, shortened: as §1

[3] = system: K. oxytoca UFR21 (TEM-1, CTX-M-15, OXA-48); experiment: MIC of compounds alone, broth microdilution; type: cell-based; settings: Klebsiella oxytoca, read-out: MIC compounds of the invention alone
Procedure, shortened: as §1

[4] = system: E. cloacae UFR70 (TEM-1, CTX-M-15, CMY-2, OXA-1, Porin loss); experiment: MIC of compounds alone, broth microdilution; type: cell-based; settings: Enterobacter cloacae, read-out: MIC compounds of the invention alone
Procedure, shortened: as §1

[5] = system: E. coli UFR32 (TEM-1, VEB-1, OXA-10); experiment: MIC of compounds alone, broth microdilution; type: cell-based; settings: Escherichia coli; strain UFR32 (E. coli); read-out: MIC compounds of the invention alone
Procedure, shortened: as §1

E. coli RGN238 (OXA-1) = experiment: MIC of compounds alone, broth microdilution; type: cell-based; settings: Escherichia coli; strain RGN238 (E. coli); read-out: MIC compounds of the invention alone
Procedure, shortened: as §1

[6] = system: E. coli 131119 (TEM-1, OXA-48); experiment: MIC of compounds alone, broth microdilution; type: cell-based; settings: Escherichia coli; strain 131119 (E. coli); read-out: MIC compounds of the invention alone
Procedure, shortened: as §1

[7] = system: E. coli UFR61O (TEM-1, KPC-2); experiment: MIC of compounds alone, broth microdilution; type: cell-based; settings: Escherichia coli; strain UFR61O (E. coli); read-out: MIC compounds of the invention alone
Procedure, shortened: as §1

[8] = system: E. cloacae UFR51 (SHV-12, IMP-8); experiment: MIC of compounds alone, broth microdilution; type: cell-based; settings: Enterobacter cloacae; strain UFR51 (E. cloacae); read-out: MIC compounds of the invention alone
Procedure, shortened: as §1

[9] = system: K. pneumoniae 160143 (TEM-1, SHV-1, CTX-M-15, KPC-2, OXA-1); experiment: MIC of compounds alone, broth microdilution; type: cell-based; settings: Klebsiella pneumoniae, read-out: MIC compounds of the invention alone
Procedure, shortened: as §1

[10] = system: K. pneumoniae 200047 (TEM-1, SHV-32, CTX-M-15, OXA-1); experiment: MIC of compounds alone, broth microdilution; type: cell-based; settings: Klebsiella pneumoniae, read-out: MIC compounds of the invention alone
Procedure, shortened: as §1

[11] = system: E. cloacae 260508 (TEM-1, CTX-M-15); experiment: MIC of compounds alone, broth microdilution; type: cell-based; settings: Enterobacter cloacae, read-out: MIC compounds of the invention alone
Procedure, shortened: as §1

[12] = system: K. pneumoniae UFR39 (CTX-M-15, NDM-1); experiment: MIC of compounds alone, broth microdilution; type: cell-based; settings: Klebsiella pneumoniae; strain UFR39 (K. pneumoniae); read-out: MIC compounds of the invention alone
Procedure, shortened: as §1

[13] = system: K. pneumoniae UFR68 (TEM-1, SHV-11, CTX-M-15, KPC-3); experiment: MIC of compounds alone, broth microdilution; type: cell-based; settings: Klebsiella pneumoniae, read-out: MIC compounds of the invention alone
Procedure, shortened: as §1

[14] = system: K. pneumoniae BAA-1898 (TEM-1, SHV-11, SHV-12, KPC-2); experiment: MIC of compounds alone, broth microdilution; type: cell-based; settings: Klebsiella pneumoniae, BAA1898; strain BAA-1898 (K. pneumoniae); read-out: MIC compounds of the invention alone
Procedure, shortened: as §1

[15] = system: E. coli UFR18 (CTX-M-15, OXA-204); experiment: MIC of compounds alone, broth microdilution; type: cell-based; settings: Escherichia coli; strain UFR18 (E. coli); read-out: MIC compounds of the invention alone
Procedure, shortened: as §1

[16] = system: E. coli UFR41 (TEM-1, CTX-M-15, CMY-2, OXA-1, NDM-4); experiment: MIC of compounds alone, broth microdilution; type: cell-based; settings: Escherichia coli, read-out: MIC compounds of the invention alone
Procedure, shortened: as §1

[17] = system: K. pneumoniae UFR24 (TEM-1, SHV-2, SHV-11, OXA-1, OXA-48, OXA-47); experiment: MIC of compounds alone, broth microdilution; type: cell-based; settings: Klebsiella pneumoniae; strain UFR24 (K. pneumoniae); read-out: MIC compounds of the invention alone
Procedure, shortened: as §1

[18] = system: K. pneumoniae 6299 (TEM-1, SHV-11, OXA-163); experiment: MIC of compounds alone, broth microdilution; type: cell-based; settings: Klebsiella pneumoniae; strain 6299 (K. pneumoniae); read-out: MIC compounds of the invention alone
Procedure, shortened: as §1

[19] = system: K. pneumoniae UFR77 (CMY-2); experiment: MIC of compounds alone, broth microdilution; type: cell-based; settings: Klebsiella pneumoniae; strain UFR77 (K. pneumoniae); read-out: MIC compounds of the invention alone
Procedure, shortened: as §1

[20] = system: P. aeruginosa CIP107051 (TEM-24); experiment: MIC of compounds alone, broth microdilution; type: cell-based; settings: Pseudomonas aeruginosa; strain CIP107051 (P. aeruginosa); read-out: MIC compounds of the invention alone
Procedure, shortened: as §1

[21] = system: E. coli 190317 (TEM-1, SHV-12, CTX-M-15, OXA-1); experiment: MIC of compounds alone, broth microdilution; type: cell-based; settings: Escherichia coli, read-out: MIC compounds of the invention alone
Procedure, shortened: as §1

[22] = system: E. cloacae UFR51 (SHV-12, IMP-8); experiment: MIC of ceftazidime (CAZ) in combination with compounds at 4 μg/mL, broth microdilution; type: cell-based; settings: strain UFR51; MIC of CAZ with compound fixed at 4 μg/mL
Description: Method 2: MIC of Compounds and Synergy with Ceftazidime Against Bacterial Isolates (Table 2 and 3)
Compounds of the present invention were assessed against genotyped bacterial strains alone or in combination with the β-lactam ceftazidime (CAZ). In the assays, MICs of said compounds, or of ceftazidime at fixed concentrations of said compounds were determined by the broth microdilution method according to the Clinical Laboratory Standards Institute (CLSI-M7-A7). Briefly, compounds alone according to the invention were prepared in DMSO and spotted (2 μL each) on sterile polystyrene plates (Corning, 3788). Compounds and ceftazidime dilutions were prepared in DMSO and spotted (1 μL each) on sterile polystyrene plates (Corning, 3788). Log phase bacterial suspensions were adjusted to a final density of 5×10^5 cfu/mL in cation-adjusted Mueller-Hinton broth (Becton-Dickinson) and added to each well (98 μL). Microplates were incubated for 16-20 h at 35° C. in ambient air. The MIC of the compounds was defined as the lowest concentration of said compounds that prevented bacterial growth as read by visual inspection. The MIC of ceftazidime at each compound concentration was defined as the lowest concentration of ceftazidime that prevented bacterial growth as read by visual inspection.

T1 sequence (P13661 26-276): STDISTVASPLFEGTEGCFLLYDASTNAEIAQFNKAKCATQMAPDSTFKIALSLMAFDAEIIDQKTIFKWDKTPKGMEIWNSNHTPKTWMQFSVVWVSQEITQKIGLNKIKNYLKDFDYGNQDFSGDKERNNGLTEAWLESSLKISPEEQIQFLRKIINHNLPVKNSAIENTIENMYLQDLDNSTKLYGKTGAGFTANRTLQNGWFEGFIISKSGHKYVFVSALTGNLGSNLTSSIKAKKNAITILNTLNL

SMILES	IC50 (OXA-1) [nM]	IC50 (AmpC P. aeruginosa) [nM]	IC50 (KPC-2) [nM]	IC50 (CTX-M-15) [nM]	IC50 (OXA-48) [nM]	IC50 (SHV-1) [nM]	IC50 (OXA-11) [nM]	IC50 (OXA-15) [nM]	IC50 (TEM-1) [nM]	IC50 (AmpC (P99)) [nM]	MIC (E. cloacae P99 (AmpC)) [µg/mL]	MIC [1] [µg/mL]	MIC [3] [µg/mL]	MIC [4] [µg/mL]	MIC [5] [µg/mL]	MIC [12] [µg/mL]	MIC [14] [µg/mL]	MIC [18] [µg/mL]	MIC [20] [µg/mL]	MIC [21] [µg/mL]	other results
O=C1N2CC=C(c3cnoc3)C(C2)N1OS(=O)(=O)[O-].[Na+] (stereo not drawn) [Example 5, Sodium (7-oxo-4-isoxazol-4-yl-1,6-diaza-bicyclo[3.2.1]oct-3-en-6-yl) sulfate]	450	1500	270	6.9	5.7	25	2200	94	11	670	8	> 32	> 32	16	1	2	> 32	> 32	> 32		MIC [2]: > 32 µg/mL; MIC (E. coli RGN238 (OXA-1)): > 32 µg/mL; MIC [6]: 16 µg/mL; MIC [7]: 8 µg/mL; MIC [8]: 2 µg/mL; MIC [9]: > 32 µg/mL; MIC [10]: > 32 µg/mL; MIC [11]: 16 µg/mL; MIC [13]: > 32 µg/mL; MIC [15]: 1 µg/mL; MIC [16]: > 32 µg/mL; MIC [17]: > 32 µg/mL; MIC [19]: > 32 µg/mL
O=C1N2CC(c3ccncc3)=CC(C2)N1OS(=O)(=O)[O-].[Na+] (stereo not drawn) [Example 33, Sodium [3-(4-pyridyl)-7-oxo-1,6-diazabicyclo[3.2.1]oct-3-en-6-yl]sulfate]	690	90	9	0.79	12	2.3	210	110	1	31	8	8	32	4	8	16	8	16	> 32	4	MIC (E. coli RGN238 (OXA-1)): 4 µg/mL; MIC [6]: 4 µg/mL; MIC [7]: 16 µg/mL; MIC [8]: 16 µg/mL; MIC [9]: 8 µg/mL; MIC [10]: 8 µg/mL; MIC [15]: 4 µg/mL; MIC [17]: 32 µg/mL; MIC [19]: 16 µg/mL; MIC combination of CAZ and compounds of the invention at 4 μg/mL [22]: >128 µg/mL
COc1ncc(C2=CC3CN(C2)C(=O)N3OS(=O)(=O)[O-])s1.[Na+] (stereo not drawn) [Example 39, Sodium [3-(2-methoxythiazol-5-yl)-7-oxo-1,6-diazabicyclo[3.2.1]oct-3-en-6-yl] sulfate]	220	240	11	0.62	0.99	3.2	140	79	1.4	46	> 32					> 32	> 32	> 32	> 32	> 32	
O=C1N2CC(c3nc4cccnc4s3)=CC(C2)N1OS(=O)(=O)[O-].[Na+] (stereo not drawn) [Example 40, Sodium (7-oxo-3-thiazolo[5,4-b]pyridin-2-yl-1,6-diazabicyclo[3.2.1]oct-3-en-6-yl) sulfate]	120	230	2.2	1.2	2.7	1.1	61	77	0.35	10	> 32					> 32	> 32	> 32	> 32	> 32	
O=C1N2CC(c3ccccn3)=CC(C2)N1OS(=O)(=O)[O-].[Na+] (stereo not drawn) [Example 42, Sodium [7-oxo-3-(2-pyridyl)-1,6-diazabicyclo[3.2.1]oct-3-en-6-yl]sulfate]	640	75	8	0.89	31	2.9	120	370	2.4	25	> 32					32	32	> 32	> 32	16	
O=C1N2CC(c3cn[nH]c3)=CC(C2)N1OS(=O)(=O)[O-].[Na+] (stereo not drawn) [Example 43, Sodium [7-oxo-3-(1H-pyrazol-4-yl)-1,6-diazabicyclo[3.2.1]oct-3-en-6-yl] sulfate]	1200	440	30	2.9	9.4	1.7	370	540	0.77	180	> 32					> 32	> 32	> 32	> 32	> 32	
